Data taken from patent US9249129B2, “Morpholino substituted urea derivatives as mTOR inhibitors” (CELLZOME LIMITED, priority 2010, dated 2016).
pIC50: −log10 of the molar value. Where two headings read alike, the source gives them in different places.

What was measured:
PI3K delta (PI3Kd) = biological target: T1, PI3K delta (PI3Kd) (Homo sapiens, UniProt O00329); assay: kinobeads assay, PI3K delta (dot blot detection); type: binding
T1 construct: endogenous in cells; host or cells: Jurkat cells (ATCC TIB-152, clone E6-1), lysate
Protocol: (§1) The compounds of the present invention as described were tested in the mTOR kinobeads assay as described below. Briefly, test compounds (at various concentrations) and the affinity matrix (1:1 mixture of beads with immobilized phenylthiazole ligand 1 and beads with immobilized phenylmorpholin-chromen ligand; WO 2009/098021) were added to cell lysate aliquots and allowed to bind to the proteins in the lysate sample. After the incubation time the beads with captured proteins were separated from the lysate. Bound proteins were then eluted and the presence of mTOR, PI3K delta (PI3 Kd) and DNA-dependent protein kinase (DNA-PK) was detected and quantified using a specific antibody in a dot blot procedure and the Odyssey infrared detection system. Dose response curves for individual kinases were generated and IC50 values calculated. Kinobeads assays for PI3 kinases (WO-A 2008/015013) and for kinase selectivity profiling (WO 2009/098021) have been previously described.
(§2) The affinity matrix (beads with immobilized phenylmorpholin-chromen ligand) was washed two times with 15 ml of 1×DP buffer containing 0.2% NP40 (IGEPAL® CA-630, Sigma, #13021) and then resupended in 5.5 ml of 1×DP buffer containing 0.2% NP40 (10% beads slurry).
(§3) 5×DP buffer: 250 mM Tris-HCl pH 7.4, 25% Glycerol, 7.5 mM MgCl2, 750 mM NaCl, 5 mM Na3VO4, filter the 5×-lysis buffer through 0.22 μm filter and store in aliquots at −80° C. The 5×DP buffer is diluted to 1×DP buffer containing 1 mM DTT and 25 mM NaF.
(§4) Stock solutions of test compounds were prepared in DMSO. In a 96 well plate 30 μl solution of diluted test compounds at 5 mM in DMSO were prepared. Starting with this solution a 1:3 dilution series (9 steps) was prepared. For control experiments (no test compound) a buffer containing 2% DMSO was used. Compound CZC00018052 served as a positive control (PI-103; Calbiochem catalogue number 528100).
(§5) Jurkat cells (ATCC catalogue number TIB-152 Jurkat, clone E6-1) were grown in 1 litre Spinner flasks (Integra Biosciences, #182101) in suspension in RPMI 1640 medium (Invitrogen, #21875-034) supplemented with 10% Fetal Bovine Serum (Invitrogen) at a density between 0.15×10^6 and 1.2×10^6 cells/ml. Cells were harvested by centrifugation, washed once with 1×PBS buffer (Invitrogen, #14190-094) and cell pellets were frozen in liquid nitrogen and subsequently stored at −80° C.
(§6) Jurkat cells were homogenized in a Potter S homogenizer in lysis buffer: 50 mM Tris-HCl, 0.8% NP40, 5% glycerol, 150 mM NaCl, 1.5 mM MgCl2, 25 mM NaF, 1 mM sodium vanadate, 1 mM DTT, pH 7.5. One complete EDTA-free tablet (protease inhibitor cocktail, Roche Diagnostics, 1873580) per 25 ml buffer was added. The material was dounced 10 times using a mechanized POTTER S, transferred to 50 ml falcon tubes, incubated for 30 minutes on ice and spun down for 10 min at 20,000 g at 4° C. (10,000 rpm in Sorvall SLA600, precooled). The supernatant was transferred to an ultracentrifuge (UZ)-polycarbonate tube (Beckmann, 355654) and spun for 1 hour at 100.000 g at 4° C. (33.500 rpm in Ti50.2, precooled). The supernatant was transferred again to a fresh 50 ml falcon tube, the protein concentration was determined by a Bradford assay (BioRad) and samples containing 50 mg of protein per aliquot were prepared. The samples were immediately used for experiments or frozen in liquid nitrogen and stored frozen at −80° C.
(§7) Jurkat cell lysate (approximately 50 mg protein per plate) was thawed in a water bath at room temperature and then kept on ice. To the thawed cell lysate 1×DP 0.8% NP40 buffer containing protease inhibitors (1 tablet for 25 ml buffer; EDTA-free protease inhibitor cocktail; Roche Diagnostics 1873580) was added in order to reach a final protein concentration of 5 mg/ml total protein. The diluted cell lysate was stored on ice. […]

mTOR = biological target: T2, mTOR (Homo sapiens, UniProt P42345); assay: mTOR kinobeads assay (dot blot detection); type: binding
T2 construct: endogenous in cells; host or cells: Jurkat cells (ATCC TIB-152, clone E6-1), lysate
Protocol: as §1, §2, §3, §4, §5, §6, §7

PI3Kβ = biological target: T3, PI3Kβ (Homo sapiens, UniProt P42338); assay: kinobeads assay, PI3K beta (dot blot detection); type: binding; settings: Table 4, read-out: Inhibition values (IC50) PI3Kb
T3 construct: endogenous in cells; host or cells: Jurkat cells (ATCC TIB-152) lysate, the only lysate described

[1] = biological target: T4, DNA-dependent protein kinase (DNA-PK) (Homo sapiens, UniProt P78527); assay: kinobeads assay, DNA-PK (dot blot detection); type: binding
T4 construct: endogenous in cells; host or cells: Jurkat cells (ATCC TIB-152, clone E6-1), lysate
Protocol: as §1, §2, §3, §4, §5, §6, §7

PI3Kα = biological target: T5, PI3Kα (Homo sapiens, UniProt P42336); assay: kinobeads assay, PI3K alpha (dot blot detection); type: binding; settings: Table 4, read-out: Inhibition values (IC50) PI3Ka
T5 construct: endogenous in cells; host or cells: Jurkat cells (ATCC TIB-152) lysate, the only lysate described

PI3Kγ = biological target: T6, PI3Kγ (Homo sapiens, UniProt P48736); assay: kinobeads assay, PI3K gamma (dot blot detection); type: binding; settings: Table 4, read-out: Inhibition values (IC50) PI3Kg
T6 construct: endogenous in cells; host or cells: Jurkat cells (ATCC TIB-152) lysate, the only lysate described

[2] = system: S6RP serine-240/244 phosphorylation in HEK293T/17 cells; assay: In vitro phospho-S6 cellular assay (pS6RP S240/244); type: cell-based; settings: Homo sapiens, Table 6, 2 hours, S6RP Ser240/244, read-out: pS6 (phospho-S6 cell assay data, activity level)
Excerpt: In Vitro Phospho-S6 and Phospho-Akt Cellular Assay
Activation of mTOR signaling results in phosphorylation of several downstream targets. In cells, mTOR exists in two different protein complexes. The mTOR Complex-1 (mTORC1) phosphorylates and activates S6 Kinase 1 (S6K1) and S6 Kinase 2 (S6K2) (also known as p70S6K) which then phosphorylate S6 Ribosomal Protein (S6RP) (also known as RPS6). S6RP is phosphorylated on serine 235, serine 236, serine 240 and serine 244 by both pS6K1 and pS6K2. The mTOR Complex-2 (mTORC2) phosphorylates AKT on serine 473 which activates the AKT signaling pathway.
The assay measures a test compound's inhibition of S6RP serine-240/244 phosphorylation and inhibition of Akt serine-473 phosphorylation in human embryonic kidney derived HEK293T/17 cells (ATCC CRL-11268).
The HEK293T/17 cell line is maintained in DMEM media (Invitrogen catalogue number 41965-039) supplemented with 10% FCS at 37° C. in a 5% CO2 humidified incubator.
Cells are seeded in 96-well plates at 40,000 cells/well (pS6RP S240/244 assay) or 80,000 cells/well (pAkt 5473 assay) in 90 μl growth media (DMEM, 2% FCS). Plates are incubated for 1 hour in a humidified incubator to allow the cells to adhere. Cells are treated with 8 concentrations of test compounds or DMSO alone for controls (final DMSO concentration 0.1%) and incubated at 37° C. for 2 hours. Then 20 μl of 5× concentrated lysis buffer (750 mM NaCl, 100 mM Tris pH7.4, 5 mM EDTA, 5 mM EGTA, 5% Triton X-100) is added, plates are sealed and incubated for 15 minutes at 4° C. with gentle shaking. After cell lysis, 25 μl cell lysate is transferred to a MesoScale plate coated with an antibody to pS6RP Ser240/244 (MesoScale Discovery K150DGD-3) or an antibody to pAkt Ser 473 (MesoScale Discovery K151DGD-3). Plates have been blocked before by incubation with 150 μl MesoScale Discovery Blocking Solution-A for 1 hour at room temperature followed by washing with 150 μl 1× Tris wash buffer per well. After the transfer of the cell lysate to the MSD plate, the pS6RP (or pAkt) protein is captured on the coated antibody by incubation at room temperature for 1 hour with gentle shaking. After the capture step the plate is washed three times with 150 μl of 1× Tris wash buffer per well. Then 25 μl detection antibody conjugated with a Sulfo-Tag is added and incubated for 1 hour at room temperature with gentle shaking. Subsequently the antibody solution is removed and the plate is washed 3 times with 150 μl 1× Tris wash buffer per well and 150 μl Read buffer is added. The plates are analysed on a MSD 2400 Plate Reader (MesoScale Discovery). Data analysis is performed using nonlinear regression for a sigmoidal dose-response with a variable slope.

[3] = Table 2, Jurkat cell lysate, read-out: Inhibition values (IC50) PI3Kd
[4] = Table 4, read-out: Inhibition values (IC50) PI3Kd
[5] = Table 2, Jurkat cell lysate, read-out: Inhibition values (IC50) mTor
[6] = Table 4, read-out: Inhibition values (IC50) mTOR
[7] = Table 2, Jurkat cell lysate, read-out: Inhibition values (IC50) DNAPK
[8] = Table 4, read-out: Inhibition values (IC50) DNAPK

T3 sequence (P42338 whole entry): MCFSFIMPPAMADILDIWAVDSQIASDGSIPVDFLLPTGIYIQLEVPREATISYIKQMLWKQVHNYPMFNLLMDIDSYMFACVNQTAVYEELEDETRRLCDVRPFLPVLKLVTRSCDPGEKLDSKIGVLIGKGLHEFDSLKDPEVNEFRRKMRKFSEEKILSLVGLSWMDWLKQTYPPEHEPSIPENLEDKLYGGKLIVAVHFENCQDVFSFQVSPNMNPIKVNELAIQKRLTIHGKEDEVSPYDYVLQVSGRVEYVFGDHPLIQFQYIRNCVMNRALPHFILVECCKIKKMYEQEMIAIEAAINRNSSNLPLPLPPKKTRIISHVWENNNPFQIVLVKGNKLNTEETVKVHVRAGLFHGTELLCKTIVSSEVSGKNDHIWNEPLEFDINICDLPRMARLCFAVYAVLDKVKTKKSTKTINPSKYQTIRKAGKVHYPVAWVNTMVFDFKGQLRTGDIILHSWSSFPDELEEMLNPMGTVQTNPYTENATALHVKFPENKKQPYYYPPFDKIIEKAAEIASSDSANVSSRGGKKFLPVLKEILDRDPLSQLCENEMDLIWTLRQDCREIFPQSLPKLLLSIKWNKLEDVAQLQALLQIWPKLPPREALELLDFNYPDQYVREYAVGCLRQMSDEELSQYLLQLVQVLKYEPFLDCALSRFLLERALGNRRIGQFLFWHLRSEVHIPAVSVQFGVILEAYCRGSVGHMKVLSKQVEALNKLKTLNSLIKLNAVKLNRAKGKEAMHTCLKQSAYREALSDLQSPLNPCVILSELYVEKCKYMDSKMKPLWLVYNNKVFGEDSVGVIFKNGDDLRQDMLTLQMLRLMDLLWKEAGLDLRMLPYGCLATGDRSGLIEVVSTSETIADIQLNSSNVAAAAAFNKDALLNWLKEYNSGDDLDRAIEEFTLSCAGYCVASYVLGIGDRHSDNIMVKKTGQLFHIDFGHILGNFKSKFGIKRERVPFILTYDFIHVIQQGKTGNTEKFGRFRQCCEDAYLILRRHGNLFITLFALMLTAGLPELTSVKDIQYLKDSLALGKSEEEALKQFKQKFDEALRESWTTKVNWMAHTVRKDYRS
T3 sequence (P27986 whole entry partner): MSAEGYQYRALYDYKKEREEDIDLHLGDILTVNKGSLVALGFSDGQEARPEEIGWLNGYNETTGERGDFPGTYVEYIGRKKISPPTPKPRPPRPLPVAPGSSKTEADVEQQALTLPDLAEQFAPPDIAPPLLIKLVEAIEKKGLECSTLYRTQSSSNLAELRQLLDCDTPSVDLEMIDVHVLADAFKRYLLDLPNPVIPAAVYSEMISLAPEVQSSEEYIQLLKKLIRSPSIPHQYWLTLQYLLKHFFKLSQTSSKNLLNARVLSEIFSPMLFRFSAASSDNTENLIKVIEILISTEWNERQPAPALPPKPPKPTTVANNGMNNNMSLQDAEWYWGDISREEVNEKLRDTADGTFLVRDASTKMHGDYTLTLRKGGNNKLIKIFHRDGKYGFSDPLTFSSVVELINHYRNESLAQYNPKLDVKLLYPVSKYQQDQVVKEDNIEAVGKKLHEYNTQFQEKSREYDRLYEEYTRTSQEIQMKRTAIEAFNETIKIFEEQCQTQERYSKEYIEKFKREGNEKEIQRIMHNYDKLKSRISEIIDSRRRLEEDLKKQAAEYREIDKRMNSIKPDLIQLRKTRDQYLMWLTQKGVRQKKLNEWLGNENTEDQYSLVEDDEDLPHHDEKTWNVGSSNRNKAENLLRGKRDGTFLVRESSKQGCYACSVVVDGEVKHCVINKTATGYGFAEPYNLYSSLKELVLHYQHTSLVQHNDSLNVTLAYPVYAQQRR
T5 sequence (P42336 whole entry): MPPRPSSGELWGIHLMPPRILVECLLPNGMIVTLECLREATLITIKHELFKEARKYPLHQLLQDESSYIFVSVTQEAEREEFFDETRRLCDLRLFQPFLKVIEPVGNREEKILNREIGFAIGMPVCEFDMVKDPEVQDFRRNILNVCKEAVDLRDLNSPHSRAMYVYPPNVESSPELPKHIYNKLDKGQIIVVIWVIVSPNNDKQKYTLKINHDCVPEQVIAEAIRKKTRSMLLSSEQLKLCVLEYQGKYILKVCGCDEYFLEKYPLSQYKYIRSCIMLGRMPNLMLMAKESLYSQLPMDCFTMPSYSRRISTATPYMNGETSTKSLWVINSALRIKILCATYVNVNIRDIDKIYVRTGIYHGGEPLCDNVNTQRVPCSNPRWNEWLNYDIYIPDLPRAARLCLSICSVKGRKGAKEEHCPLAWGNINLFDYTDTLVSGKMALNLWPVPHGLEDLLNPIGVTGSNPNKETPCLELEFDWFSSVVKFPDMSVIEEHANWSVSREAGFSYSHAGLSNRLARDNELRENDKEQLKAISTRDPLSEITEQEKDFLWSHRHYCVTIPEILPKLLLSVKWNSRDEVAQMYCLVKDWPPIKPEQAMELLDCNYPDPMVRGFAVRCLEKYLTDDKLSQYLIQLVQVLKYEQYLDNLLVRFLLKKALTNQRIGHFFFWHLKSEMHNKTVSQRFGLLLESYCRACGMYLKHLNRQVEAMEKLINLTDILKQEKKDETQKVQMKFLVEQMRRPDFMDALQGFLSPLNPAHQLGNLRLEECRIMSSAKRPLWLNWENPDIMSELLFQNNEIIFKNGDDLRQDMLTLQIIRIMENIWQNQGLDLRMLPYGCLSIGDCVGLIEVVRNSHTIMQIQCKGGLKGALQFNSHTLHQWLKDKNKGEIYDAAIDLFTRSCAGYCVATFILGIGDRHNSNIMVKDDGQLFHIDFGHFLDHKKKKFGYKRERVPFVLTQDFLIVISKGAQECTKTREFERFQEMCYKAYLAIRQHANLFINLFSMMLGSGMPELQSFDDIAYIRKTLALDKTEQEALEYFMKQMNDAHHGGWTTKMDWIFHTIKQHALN
T5 sequence (P27986 whole entry partner): as the sequence (P27986 whole entry partner) above
T1 sequence (O00329 whole entry): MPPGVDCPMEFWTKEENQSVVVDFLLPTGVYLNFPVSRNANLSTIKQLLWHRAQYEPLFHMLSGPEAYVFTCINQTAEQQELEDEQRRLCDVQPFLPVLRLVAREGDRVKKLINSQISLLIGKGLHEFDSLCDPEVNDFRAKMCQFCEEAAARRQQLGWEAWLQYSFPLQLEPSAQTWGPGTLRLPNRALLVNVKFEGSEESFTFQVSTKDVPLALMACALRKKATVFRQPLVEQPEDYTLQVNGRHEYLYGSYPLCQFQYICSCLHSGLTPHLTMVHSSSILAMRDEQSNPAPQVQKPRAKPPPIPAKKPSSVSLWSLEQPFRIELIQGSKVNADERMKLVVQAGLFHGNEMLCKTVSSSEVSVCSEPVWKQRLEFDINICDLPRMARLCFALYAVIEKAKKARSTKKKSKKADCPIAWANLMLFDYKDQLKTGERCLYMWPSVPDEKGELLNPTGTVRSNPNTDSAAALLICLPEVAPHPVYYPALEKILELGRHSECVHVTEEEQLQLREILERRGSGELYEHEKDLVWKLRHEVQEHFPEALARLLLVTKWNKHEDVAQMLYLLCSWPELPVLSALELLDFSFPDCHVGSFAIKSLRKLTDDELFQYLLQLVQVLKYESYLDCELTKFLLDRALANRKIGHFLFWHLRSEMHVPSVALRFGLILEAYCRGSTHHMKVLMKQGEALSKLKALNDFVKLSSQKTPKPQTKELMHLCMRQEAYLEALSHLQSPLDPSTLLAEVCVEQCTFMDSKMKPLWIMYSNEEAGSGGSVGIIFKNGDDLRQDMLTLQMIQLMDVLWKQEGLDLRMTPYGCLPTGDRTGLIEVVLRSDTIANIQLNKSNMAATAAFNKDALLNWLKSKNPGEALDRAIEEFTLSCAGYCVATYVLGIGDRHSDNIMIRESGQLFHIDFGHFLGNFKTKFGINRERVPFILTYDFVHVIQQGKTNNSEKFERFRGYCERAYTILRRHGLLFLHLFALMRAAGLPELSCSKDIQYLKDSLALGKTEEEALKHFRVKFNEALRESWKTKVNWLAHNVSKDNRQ
T1 sequence (P27986 whole entry partner): as the sequence (P27986 whole entry partner) above
T6 sequence (P48736 whole entry): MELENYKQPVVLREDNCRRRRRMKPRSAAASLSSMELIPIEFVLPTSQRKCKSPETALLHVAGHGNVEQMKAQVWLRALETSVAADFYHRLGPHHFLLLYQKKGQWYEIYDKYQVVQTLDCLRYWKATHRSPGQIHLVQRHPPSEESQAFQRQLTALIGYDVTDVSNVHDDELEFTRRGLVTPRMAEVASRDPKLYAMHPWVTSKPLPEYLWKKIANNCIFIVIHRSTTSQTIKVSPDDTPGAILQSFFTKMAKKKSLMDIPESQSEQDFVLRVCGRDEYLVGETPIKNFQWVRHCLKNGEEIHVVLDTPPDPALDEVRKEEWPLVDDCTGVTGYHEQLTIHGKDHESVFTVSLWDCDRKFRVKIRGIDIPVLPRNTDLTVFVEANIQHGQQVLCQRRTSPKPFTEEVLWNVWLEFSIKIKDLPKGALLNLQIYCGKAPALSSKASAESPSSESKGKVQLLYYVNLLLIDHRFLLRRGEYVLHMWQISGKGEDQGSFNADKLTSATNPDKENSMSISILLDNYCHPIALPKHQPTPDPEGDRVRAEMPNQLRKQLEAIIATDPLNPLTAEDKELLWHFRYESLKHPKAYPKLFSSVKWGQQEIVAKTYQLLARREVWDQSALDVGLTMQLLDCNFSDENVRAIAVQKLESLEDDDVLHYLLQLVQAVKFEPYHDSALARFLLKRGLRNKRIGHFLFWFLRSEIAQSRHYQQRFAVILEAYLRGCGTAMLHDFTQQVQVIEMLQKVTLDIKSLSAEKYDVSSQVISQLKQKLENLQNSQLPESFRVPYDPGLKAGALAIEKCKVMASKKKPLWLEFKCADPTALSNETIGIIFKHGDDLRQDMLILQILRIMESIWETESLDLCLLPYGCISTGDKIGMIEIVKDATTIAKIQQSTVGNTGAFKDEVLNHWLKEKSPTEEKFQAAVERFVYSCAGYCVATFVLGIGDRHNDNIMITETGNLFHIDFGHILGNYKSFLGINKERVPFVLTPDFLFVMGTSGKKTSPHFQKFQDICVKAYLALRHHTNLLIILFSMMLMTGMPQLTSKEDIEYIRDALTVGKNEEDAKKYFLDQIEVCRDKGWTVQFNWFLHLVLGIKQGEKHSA

SMILES	pIC50 (PI3K delta (PI3Kd); [3])	pIC50 (PI3K delta (PI3Kd); [4])	pIC50 (mTOR; [5])	pIC50 (mTOR; [6])	pIC50 (PI3Kβ)	pIC50 [1, 7]	pIC50 [1, 8]	pIC50 (PI3Kα)	pIC50 (PI3Kγ)	pIC50 [2]
O=C(Nc1ccc(-c2nccc(N3CCOCC3)n2)cc1)NC1CC1 [Example 26, 1-cyclopropyl-3-(4-(4-morpholinopyrimidin-2-yl)phenyl)urea]	≤ 5.00	≤ 5.00	6.00 to 7.00	6.00 to 7.00	5.00 to 6.00	5.00 to 6.00	5.00 to 6.00	≤ 5.00	≤ 5.00	6.00 to 7.00
O=C(Nc1ccc(-c2ccnc(N3CCOCC3)n2)cc1)NC1CC1 [Example 28, 1-cyclopropyl-3-(4-(2-morpholinopyrimidin-4-yl)phenyl)urea]	≤ 5.00	≤ 5.00	5.00 to 6.00	5.00 to 6.00	≤ 5.00	≤ 5.00	≤ 5.00	≤ 5.00	≤ 5.00	5.00 to 6.00
CCNC(=O)Nc1ccc(-c2ccnc(N3CCOCC3)n2)cc1 [Example 29, 1-ethyl-3-(4-(2-morpholinopyrimidin-4-yl)phenyl)urea]	≤ 5.00	≤ 5.00	5.00 to 6.00	6.00 to 7.00	5.00 to 6.00	5.00 to 6.00	5.00 to 6.00	5.00 to 6.00	≤ 5.00	6.00 to 7.00
CNC(=O)Nc1ccc(-c2ccnc(N3CCOCC3)n2)cc1 [Example 30, 1-methyl-3-(4-(2-morpholinopyrimidin-4-yl)phenyl)urea]	5.00 to 6.00	5.00 to 6.00	5.00 to 6.00	5.00 to 6.00	5.00 to 6.00	5.00 to 6.00	5.00 to 6.00	5.00 to 6.00	≤ 5.00	5.00 to 6.00
C[C@H]1COCCN1c1ccnc(-c2ccc(NC(=O)NC3CC3)cc2)n1 [Example 35, (S)-1-cyclopropyl-3-(4-(4-(3-methylmorpholino)pyrimidin-2-yl)phenyl)urea]	≤ 5.00	≤ 5.00	6.00 to 7.00	6.00 to 7.00	≤ 5.00	≤ 5.00	≤ 5.00	≤ 5.00	≤ 5.00	6.00 to 7.00
